Laboratory results from ChEMBL document CHEMBL4130544, “Bioactive Asarone-Derived Phenylpropanoids from the Rhizome of Acorus tatarinowii Schott” (J Nat Prod, 2017).
The source made the active and inactive calls. The rule behind the calls is not given here.

Experiments:
[1] = target: Acetylcholinesterase (Homo sapiens) (UniProt P22303); assay: Inhibition of AChE (unknown origin) at 100 uM using acetylthiocholine iodide as substrate measured after 30 mins by Ellman's method
Alpha glucosidase [2] = target: T1, Alpha glucosidase (Homo sapiens, UniProt O43451+P10253+P14410+Q2M2H8); assay: Inhibition of alpha-glucosidase (unknown origin) at 400 uM using p-NPG as substrate pretreated for 10 mins followed by substrate addition measured after 5 mins; type: protein assay
Alpha glucosidase [3] = target: T1, Alpha glucosidase; assay: Inhibition of alpha-glucosidase (unknown origin) using p-NPG as substrate pretreated for 10 mins followed by substrate addition measured after 5 mins; type: protein assay
[4] = Antioxidant activity assessed as AAPH radical scavenging activity at 12.5 uM by ORAC-FL assay; type: functional
[5] = Antioxidant activity assessed as DPPH radical scavenging activity at 100 uM incubated for 30 mins under dark condition; type: functional

Acetylcholinesterase (Homo sapiens), sequence (P22303 whole entry): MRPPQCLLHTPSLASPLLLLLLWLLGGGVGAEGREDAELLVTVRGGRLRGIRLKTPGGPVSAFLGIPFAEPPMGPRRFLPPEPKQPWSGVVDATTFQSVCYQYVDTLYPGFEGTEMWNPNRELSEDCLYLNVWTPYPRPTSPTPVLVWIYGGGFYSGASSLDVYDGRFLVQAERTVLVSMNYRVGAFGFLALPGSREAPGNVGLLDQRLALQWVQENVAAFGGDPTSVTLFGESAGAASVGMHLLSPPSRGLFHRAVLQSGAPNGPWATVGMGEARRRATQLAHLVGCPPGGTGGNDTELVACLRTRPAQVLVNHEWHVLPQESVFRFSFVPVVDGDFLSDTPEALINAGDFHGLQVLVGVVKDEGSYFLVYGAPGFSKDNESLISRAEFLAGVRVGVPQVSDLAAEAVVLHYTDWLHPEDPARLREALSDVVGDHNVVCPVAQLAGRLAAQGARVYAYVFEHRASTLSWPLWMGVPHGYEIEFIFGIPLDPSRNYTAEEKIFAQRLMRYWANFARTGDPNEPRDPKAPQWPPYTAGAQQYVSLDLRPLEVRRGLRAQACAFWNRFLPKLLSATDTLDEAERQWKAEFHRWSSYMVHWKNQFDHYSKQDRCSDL

Row | Structure (SMILES) | inhibition [1] | inhibition (Alpha glucosidase [2]) | IC50 (Alpha glucosidase [3]) | Activity [4] | Activity [5]
1 | COc1cc(OC)c([C@@H](OC)[C@@H](C)O)cc1OC | Active | Active | – | – | –
2 | COc1cc(OC)c([C@H](OC)[C@H](C)O)cc1OC | Active | Active | – | – | –
3 | COc1cc(OC)c([C@@H]2[C@@H](C)[C@H](c3cc(OC)c(OC)cc3OC)O[C@@H]2C)cc1OC (racemic) | Active | Active | – | – | –
4 | COc1ccc(CCCO)cc1OC | Active | Active | – | – | –
5 | COc1cc(OC)c([C@H](C)C(OC)OC)cc1OC | Active | Active | – | – | –
6 | COc1cc(OC)c(OC)cc1C=O | Active | Active | – | – | –
7 | CCO[C@H](c1cc(OC)c(OC)cc1OC)[C@@H](C)O | Active | Active | – | – | –
8 | COc1cc(OC)c(C(O)C(C)=O)cc1OC (stereo not drawn) | Active | Active | – | – | –
9 | COc1cc(OC)c([C@H](O)[C@@H](C)O)cc1OC (relative stereo) | Active | Active | – | – | –
10 | CCO[C@H](c1cc(OC)c(OC)cc1OC)[C@H](C)O | Active | Active | – | – | –
11 | COc1cc(OC)c([C@H](OC)[C@@H](C)O)cc1OC | Active | inactive | – | – | –
12 | CCO[C@@H](c1cc(OC)c(OC)cc1OC)[C@@H](C)O | Active | Active | – | – | –
13 | COc1cc(OC)c([C@@H](O)[C@@H](C)O)cc1OC (relative stereo) | Active | Active | – | – | –
14 | COc1cc(OC)c(C(C)=O)cc1OC | Active | Active | – | – | –
15 | COc1cc(OC)c([C@@H](C)C(OC)OC)cc1OC | Active | Active | – | – | –
16 | COc1cc(OC)c([C@@H](OC)[C@H](C)O)cc1OC | Active | Active | 80.6 µM | – | –
17 | COc1cc([C@H]2OC[C@H]3[C@@H]2CO[C@@H]3c2ccc(O)c(OC)c2)ccc1O (racemic) | Active | Active | – | Active | Active
18 | CCO[C@@H](c1cc(OC)c(OC)cc1OC)[C@H](C)O | Active | Active | – | – | –
19 | COc1cc([C@H]2Oc3c(OC)cc(CCCO[C@@H]4O[C@H](CO)[C@@H](O)[C@H](O)[C@H]4O)cc3[C@@H]2CO)ccc1O | Active | Active | – | 3.17 µMequiv/µM | Active
20 | O=C(O[C@@H]1Cc2c(O)cc(O)cc2O[C@@H]1c1cc(O)c(O)c(O)c1)c1cc(O)c(O)c(O)c1 | – | – | – | 1.97 µMequiv/µM | –
21 | COc1cc([C@H]2Oc3c(OC)cc(CCCO)cc3[C@@H]2CO[C@@H]2O[C@H](CO)[C@@H](O)[C@H](O)[C@H]2O)ccc1O | Active | Active | – | Active | Active
